SMILES strings stand for the structures.

One may read the melting point as the temperature, or range, at which the solid turns liquid. Compound `O=C1CN(CCc2cccc(Cl)c2)C(C(F)(F)F)c2cc(Cl)ccc2N1` (stereo not drawn) [compound 141, 7-Chloro-4-(2-(3-chlorophenyl)ethyl)-1,5-dihydro-5-(trifluoromethyl)-1,4-benzodiazepin-2-one] came in with a melting point of 208 to 209 °C.

With `O=C1CN(Cc2cccc(F)c2)C(C(F)(F)F)c2cc(Cl)ccc2N1` (stereo not drawn) [compound 142, 7-Chloro-4-(3-fluorobenzyl)-1,5-dihydro-5-(trifluoromethyl)-1,4-benzodiazepin-2-one], the melting point lay within 181 to 182 °C.

`COc1cccc(OC)c1CN1CC(=O)Nc2ccc(Cl)cc2C1C(F)(F)F` (stereo not drawn) [compound 143, 7-Chloro-4-(2,6-dimethoxybenzyl)-1,5-dihydro-5-(trifluoromethyl)-1,4-benzodiazepin-2-one] had a melting point of 128 to 129 °C.

As to `COc1ccc(OC)c(CN2CC(=O)Nc3ccc(Cl)cc3C2C(F)(F)F)c1` (stereo not drawn) [compound 144, 7-Chloro-4-(2,5-dimethoxybenzyl)-1,5-dihydro-5-(trifluoromethyl)-1,4-benzodiazepin-2-one], the melting point fell in the range of 182 to 183 °C.

Take `COc1ccc(OC)c(CN2CC(=O)Nc3ccc(Cl)cc3C2C(F)(F)F)c1F` (stereo not drawn) [compound 145, 7-Chloro-4-(2,5-dimethoxy-6-fluorobenzyl)-1,5-dihydro-5-(trifluoromethyl)-1,4-benzodiazepin-2-one]: the melting point was in the range of 121 to 122 °C.

In turn, `COc1cccc(F)c1CN1CC(=O)Nc2ccc(Cl)cc2C1C(F)(F)F` (stereo not drawn) [compound 146, 7-Chloro-4-(2-methoxy-6-fluorobenzyl)-1,5-dihydro-5-(trifluoromethyl)-1,4-benzodiazepin-2-one] gave a melting point of 107 to 108 °C.

Compound `O=C1CN(Cc2cccc(F)c2F)C(C(F)(F)F)c2cc(Cl)ccc2N1` (stereo not drawn) [compound 147, 7-Chloro-4-(2,3-difluorobenzyl)-1,5-dihydro-5-(trifluoromethyl)-1,4-benzodiazepin-2-one] yielded a melting point of 182 to 183 °C.

In the case of `O=C1CN(Cc2cc(F)ccc2F)C(C(F)(F)F)c2cc(Cl)ccc2N1` (stereo not drawn) [compound 148, 7-Chloro-4-(2,5-difluorobenzyl)-1,5-dihydro-5-(trifluoromethyl)-1,4-benzodiazepin-2-one], the melting point was 134 to 135 °C.

With `CCC#CCN1CC(=O)Nc2ccc(Cl)cc2C1C(F)(F)F` (stereo not drawn) [compound 149, 7-Chloro-4-(2-pentynyl)-1,5-dihydro-5-(trifluoromethyl)-1,4-benzodiazepin-2-one], the melting point lay in the range of 123 to 124 °C.

Regarding `O=C1CN(Cc2cc(Br)cs2)C(C(F)(F)F)c2cc(Cl)ccc2N1` (stereo not drawn) [compound 150, 7-Chloro-4-(4-bromothien-2-ylmethyl)-1,5-dihydro-5-(trifluoromethyl)-1,4-benzodiazepin-2-one], the melting point lay within 173 to 174 °C.

In the case of `CC(C)CCN1CC(=O)Nc2ccc(Cl)cc2C1C(F)(F)F` (stereo not drawn) [compound 151, 7-Chloro-4-(3-methylbutyl)-1,5-dihydro-5-(trifluoromethyl)-1,4-benzodiazepin-2-one], the melting point lay within 68 to 70 °C.

`C=CCCCN1CC(=O)Nc2ccc(Cl)cc2C1C(F)(F)F` (stereo not drawn) [compound 152, 7-Chloro-4-(4-penten-1-yl)-1,5-dihydro-5-(trifluoromethyl)-1,4-benzodiazepin-2-one] had a melting point of 86 to 87 °C.

`CCC=CCN1CC(=O)Nc2ccc(Cl)cc2C1C(F)(F)F` (stereo not drawn) [compound 153, 7-Chloro-4-(2-penten-1-yl)-1,5-dihydro-5-(trifluoromethyl)-1,4-benzodiazepin-2-one] came in with a melting point of 83 to 84 °C.

`O=C1CN(CC#Cc2ccccc2)C(C(F)(F)F)c2cc(Cl)ccc2N1` (stereo not drawn) [compound 154, 7-Chloro-4-(3-phenyl-2-propynyl)-1,5-dihydro-5-(trifluoromethyl)-1,4-benzodiazepin-2-one] displayed a melting point of 138 to 139 °C.

In the case of `COc1ccc(F)c(F)c1CN1CC(=O)Nc2ccc(Cl)cc2C1C(F)(F)F` (stereo not drawn) [compound 157, 7-Chloro-4-(2,3-difluoro-6-methoxybenzyl)-1,5-dihydro-5-(trifluoromethyl)-1,4-benzodiazepin-2-one], the melting point lay within 170 to 171 °C.

For the compound `COc1cccc(F)c1CN1CC(=O)Nc2ccc(Cl)cc2C1C(F)(F)F` (stereo not drawn) [compound 158, 7-Chloro-4-(2-fluoro-6-methoxybenzyl)-1,5-dihydro-5-(trifluoromethyl)-1,4-benzodiazepin-2-one], the melting point lay within 156 to 157 °C.

For `CCCCC1(C(F)(F)F)c2cc(Cl)ccc2NC(=O)CN1c1ccccc1` (stereo not drawn) [compound 159, 7-Chloro-4-phenyl-5-butyl-1,5-dihydro-5-(trifluoromethyl)-1,4-benzodiazepin-2-one], the melting point lay in the range of 177 to 178 °C.

`CCC#CCN1CC(=O)Nc2ccc(Cl)cc2C1C(F)(F)F` (stereo not drawn) [compound 160, 7-Chloro-4-(2-pentynyl)-1,5-dihydro-5-(trifluoromethyl)-1,4-benzodiazepin-2-one]: the melting point was in the range of 114 to 115 °C.

As for `O=C1CN(c2ccccc2)C(C(F)(F)F)c2cc(Cl)ccc2N1` (stereo not drawn) [compound 164, 7-Chloro-4-phenyl-1,5-dihydro-5-(trifluoromethyl)-1,4-benzodiazepin-2-one], the melting point is 187 to 188 °C.

With `C#CCN1CC(=O)Nc2ccc(Cl)cc2C1C(F)(F)F` (stereo not drawn) [compound 165, 7-Chloro-4-(2-propynyl)-1,5-dihydro-5-(trifluoromethyl)-1,4-benzodiazepin-2-one], the melting point was 181 to 182 °C.

As for `CC#CCN1CC(=O)Nc2ccc(Cl)cc2C1C(F)(F)F` (stereo not drawn) [compound 166, 7-Chloro-4-(2-butynyl)-1,5-dihydro-5-(trifluoromethyl)-1,4-benzodiazepin-2-one], the melting point fell in the range of 174 to 175 °C.

The compound `O=C1C=NC(CC(=O)C2CC2)(C(F)(F)F)c2cc(Cl)ccc2N1` (stereo not drawn) [compound 167, 7-Chloro-5-(2-cyclopropyl-2-ethanonyl)-1,5-dihydro-5-(trifluoromethyl)-1,4-benzodiazepin-2-one] returned a melting point of 148 to 149 °C.

Compound `O=C1C=NC(Cc2ccccc2)(C(F)(F)F)c2cc(Cl)ccc2N1` (stereo not drawn) [compound 168, 7-Chloro-5-benzyl-1,5-dihydro-5-(trifluoromethyl)-1,4-benzodiazepin-2-one] yielded a melting point of 160 to 161 °C.

The compound `CC(C)CC1(C(F)(F)F)N=CC(=O)Nc2ccc(Cl)cc21` (stereo not drawn) [compound 169, 7-Chloro-5-(2-methylpropyl)-1,5-dihydro-5-(trifluoromethyl)-1,4-benzodiazepin-2-one] registered a melting point of 118 to 119 °C.

In turn, `O=C1C=NC(CCc2ccccc2)(C(F)(F)F)c2cc(Cl)ccc2N1` (stereo not drawn) [compound 170, 7-Chloro-5-(2-phenylethyl)-1,5-dihydro-5-(trifluoromethyl)-1,4-benzodiazepin-2-one] displayed a melting point of 182 to 183 °C.

Compound `CCCCCC1(C(F)(F)F)N=C(C)C(=O)Nc2ccc(Cl)cc21` (stereo not drawn) [compound 171, 7-Chloro-3-methyl-5-(4-methylbutyl)-1,5-dihydro-5-(trifluoromethyl)-1,4-benzodiazepin-2-one] registered a melting point of 103 to 104 °C.

As to `O=C1C=N[C@](C#CC2CC2)(C(F)(F)F)c2cc(Cl)ccc2N1` [compound 174, 7-Chloro-5(S)-(cyclopropylethynyl)-1,5-dihydro-5-(trifluoromethyl)-1,4-benzodiazepin-2-one], the melting point lay in the range of 104 to 105 °C.

The values are drawn from patent publication US6462037B1, “1,4-benzodiazepin-2-ones useful as HIV reverse transcriptase inhibitors” (Bristol-Myers Squibb Pharma Company, priority 1999, dated 2002).
